Measurements taken from US12021195B2, “Asymmetric electrolyte salts and batteries incorporating such salts” (OHIO STATE INNOVATION FOUNDATION, priority 2019, dated 2024).
Read-outs that look alike come from different tables or passages of the source.

Experiments:
[1] = Cyclic voltammetry, oxidative stability window in diglyme
Procedure: The counter electrode was lithium metal. […] The scan rate for each CV measurement was 50 mV/s. The Al dissolution resistance was measured by cyclic voltammetry of a 2-electrode Li∥Al CR2032 coin cell. The potential was swept from 2 V to 6.1 V for a total of 5 cycles. The cell consisted of Li foil and aluminum foil (1.77 cm^2) separated by a 25 μm trilayer celgard membrane (polypropylene-polyethylene-polypropylene).
Since it has been reported that increasing the salt concentration also improves the electrochemical window,^103,107 the stability window of each electrolyte at its highest concentration was examined. In a 3-electrode cell using a platinum working electrode, Li metal counter and a silver wire reference to avoid electrolyte contamination, cyclic voltammetry was used to examine the oxidative window. Multiple scans were collected to see if there was any change with repeat cycling to highly positive voltages (FIG. 5). As a comparison, the most concentrated possible LiTFSI solution (0.2 mol fraction) was also tested.

[2] = Solubility of lithium salts in diglyme; assay type: physicochemical
Description: In order to probe structure-property relationships among sulfonamide salts, the ionic conductivity was investigated in diglyme solvent and compared with that of LiTFSI. Ethers such as diglyme have strong Lewis basicity, high chemical stability and can dissolve lithium salts via Li+ cation coordination by the lone pair on the oxygen atom.^105 However, the solubility of LiTFSI is relativity low and cannot access the concentrated electrolyte regime. This is in stark contrast to all of the sulfonamide salts investigated here. The solubility of the salts increase in the order LiTFSI<LiMPSA<LiFBSA≈LiFPSA≈LiDESA. To the best of the inventors' knowledge, in ether solvent, these sulfonamide salts have the highest solubility among any lithium salt (0.4× salt, molar ratio diglyme: Salt […]). The ionic conductivity of these electrolytes were investigated as a function of concentration (FIG. 4). The sulfonamide based electrolytes span a much larger concentration range of up to 0.4 mol fraction, where LiTFSI can only be increased up to 0.2 mol fraction. […] This could be due to reduced viscosity of the electrolytes with fluorinated derivatives as well as the ability of the ether oxygen within LiMPSA and LiDESA to coordinate the lithium cation even at low concentrations in a similar fashion to that of diglyme solvent. […]

[3] = Ionic conductivity measurements; assay type: physicochemical
Procedure: Ionic Conductivity Measurements A homemade conductivity cell was constructed with two polished stainless steel parallel plates (˜0.3 cm^2) separated by ˜0.2 cm in a Teflon cup. The entire cell was placed in a sealed vial to minimize electrolyte evaporation. To calibrate the cell constant, two conductivity standards (Sigma Aldrich) were used, 25 and […]. The calibrated cell constant was calculated to be 0.706 cm′±0.008 cm^−1. […] […] The electrochemical impedance spectrum was collected from 1 MHz to 0.5 Hz with an AC amplitude of 10 mV. The electrolyte resistance was taken as the impedance where the phase angle is as close to […] as possible in order to minimize any contribution from capacitance or inductance. All conductivity measurements were performed in an argon filled glove box.

[4] = Solubility of potassium salts in DME; settings: mol fraction of salt

With `COCCC[N-]S(=O)(=O)C(F)(F)F.[Li+]` [LiMPSA] the “oxidative stability window (in words)” value [1] was “one of the highest stabilities” and the “potential out to which cycles after the first show high stability” value [1] was 6-7 V.

With `O=S(=O)([N-]S(=O)(=O)C(F)(F)F)C(F)(F)F.[Li+]` [LiTFSI, lithium bis(trifluoromethanesulfonyl)imide, reference compound] the “potential above which rapid decomposition occurs” value ([1]; 0.2 mol fraction in diglyme, Pt working electrode, 50 mV/s) was “above 5 V”, the “oxidative stability window (in words)” value ([1]; each electrolyte at its highest concentration in diglyme (LiTFSI 0.2, LiFPSA 0.4, LiDESA 0.4, LiMPSA 0.33 mol fraction)) was “one of the lowest stabilities” and the “solubility (highest concentration reached)” value [2] was “up to 0.2 mol fraction”.

For `O=S(=O)([N-]CC(F)(F)C(F)(F)F)C(F)(F)F.[Li+]` [LiFPSA], the “oxidative stability window (in words)” value [1] was “smallest stability window” and the “ionic conductivity compared with salts with an incorporated ether group” value ([3]; in diglyme) was “higher ionic conductivity”.

For `COCCC[N-]S(=O)(=O)C(F)(F)F.[K+]` [KMPSA], the ionic conductivity ([3]; 0.6× KMPSA/DME electrolyte, 25° C.) was 0.037 mS/cm, the ionic conductivity ([3]; molten salt, 45° C.) was 0.003 mS/cm and the “solubility (mol fraction that can be reached)” value [4] was 0.6 X.

For `O=S(=O)([N-]S(=O)(=O)C(F)(F)F)C(F)(F)F.[K+]` [KTFSI, potassium bis(trifluoromethanesulfonyl)imide, reference compound], the “solubility (mol fraction that can be reached)” value [4] was about 0.34 X.
